Assay results: ChEMBL document CHEMBL5131492, “Harringtonine Ester Derivatives with Enhanced Antiproliferative Activities against HL-60 and HeLa Cells” (J Nat Prod, 2022)

Experiments:
HL-60 = test: Antiproliferative activity against human HL-60 cells assessed as inhibition of cell growth measured after 68 hrs by MTS assay; format: functional, cell-based; conditions: HL-60, 68 h
HeLa = test: Antiproliferative activity against human HeLa cells assessed as inhibition of cell growth measured after 68 hrs by MTS assay; format: functional, cell-based

| Compound | IC50 (HL-60) [µM] | IC50 (HeLa) [µM] |
| --- | --- | --- |
| CCOC(=O)C[C@](O)(CCC(C)(C)O)C(=O)O[C@@H]1C(OC)=C[C@]23CCCN2CCc2cc4c(cc2[C@H]13)OCO4 | 0.186 | 24.2 |
| CCCCOC(=O)C[C@](O)(CCC(C)(C)O)C(=O)O[C@@H]1C(OC)=C[C@]23CCCN2CCc2cc4c(cc2[C@H]13)OCO4 | 0.0424 | 10.8 |
| COC(=O)C[C@](O)(CCC(C)(C)O)C(=O)O[C@@H]1C(OC)=C[C@]23CCCN2CCc2cc4c(cc2[C@H]13)OCO4 [HARRINGTONINE] | 0.0505 | 4 |
| COC1=C[C@]23CCCN2CCc2cc4c(cc2[C@@H]3[C@@H]1OC(=O)[C@@](O)(CCC(C)(C)O)CC(=O)O)OCO4 | > 100 | > 100 |
| CCC(C)OC(=O)C[C@](O)(CCC(C)(C)O)C(=O)O[C@@H]1C(OC)=C[C@]23CCCN2CCc2cc4c(cc2[C@H]13)OCO4 (mixture of isomers) | 0.499 | 97.9 |
| CCCCCCOC(=O)C[C@](O)(CCC(C)(C)O)C(=O)O[C@@H]1C(OC)=C[C@]23CCCN2CCc2cc4c(cc2[C@H]13)OCO4 | 0.0096 | 1.9 |
| CCCOC(=O)C[C@](O)(CCC(C)(C)O)C(=O)O[C@@H]1C(OC)=C[C@]23CCCN2CCc2cc4c(cc2[C@H]13)OCO4 | 0.104 | 15.8 |
| COC(=O)C[C@](O)(CCCC(C)(C)O)C(=O)O[C@@H]1C(OC)=C[C@]23CCCN2CCc2cc4c(cc2[C@H]13)OCO4 [OMACETAXINE MEPESUCCINATE] |  | 1.7 |
| CCCCCOC(=O)C[C@](O)(CCC(C)(C)O)C(=O)O[C@@H]1C(OC)=C[C@]23CCCN2CCc2cc4c(cc2[C@H]13)OCO4 | 0.0227 | 6 |
| CCCCCCCCOC(=O)C[C@](O)(CCC(C)(C)O)C(=O)O[C@@H]1C(OC)=C[C@]23CCCN2CCc2cc4c(cc2[C@H]13)OCO4 | 0.0118 | 2 |
| COC1=C[C@]23CCCN2CCc2cc4c(cc2[C@@H]3[C@@H]1OC(=O)[C@@](O)(CCC(C)(C)O)CC(=O)OC(C)(C)C)OCO4 | 6.2 | > 100 |
| CCCCCCCOC(=O)C[C@](O)(CCC(C)(C)O)C(=O)O[C@@H]1C(OC)=C[C@]23CCCN2CCc2cc4c(cc2[C@H]13)OCO4 | 0.0094 | 0.4 |
| COC1=C[C@]23CCCN2CCc2cc4c(cc2[C@@H]3[C@@H]1OC(=O)[C@@](O)(CCC(C)(C)O)CC(=O)OCC(C)C)OCO4 | 0.119 | 23.8 |
| COC1=C[C@]23CCCN2CCc2cc4c(cc2[C@@H]3[C@@H]1OC(=O)[C@@](O)(CCC(C)(C)O)CC(=O)OC(C)C)OCO4 | 0.583 | 60.6 |
